# Measurements reported in publication PMC6379670, “An ultra-high affinity ligand of HIV-1 TAR reveals the RNA structure recognized by P-TEFb” (Nucleic Acids Research, 2018).
# Non-standard residues stand in square brackets, D forms with d. Residues, ends and D or L forms follow the SMILES beside them. hArg = N=C(N)NCCCC[C@H](N)C(=O)O; Dab = NCC[C@H](N)C(=O)O
# Target: HIV-1 TAR RNA
# Type: binding
# Conditions: EMSA, 32P radiolabeled HIV-1 TAR RNA, [RNA]=75pM; Table 1; read-out: K D (HIV)
# Experimental: Electro Mobility Shift Assays (EMSA) and 2-aminopurine fluorescence ([35]) were used to measure peptide binding. For EMSA, all RNAs were 5′-dephosphorylated ([25],[26]) and 5′-rephosphorylated using T4 Polynucleotide Kinase (PNK); shifts were performed and analyzed as previously described ([14]). The P-TEFb/Tat1:57/AFF4 binding assays were run as described ([11]), with protein samples generously donated by Drs Ursula Schulze-Gahmen and James Hurley, but binding buffers contained 250× fold excess yeast tRNA. JB181-bound samples were prepared with 3× excess labeled HIV-TAR prior to titration with the pre-formed P-TEFb/Tat1:57/AFF4 complex.
# Fig. S1. a) HIV-1 TAR, BIV TAR and 7SK-SL4 RNAs have similar secondary structures, but the JB181 peptide discriminates between them. […]
# tightly than BIV TAR (3.3 nM) or 7SK (>3 μM) RNAs. b) EMSA of representative JB-peptides with 32P radiolabeled HIV-1 TAR RNA ([RNA]=75pM). The peptide concentration increases from left to right, as indicated. The dissociation constant can be estimated by the peptide concentration where there is an approximate 1:1 ratio (as established by visual inspection) between free RNA and complex, since the RNA concentration is much lower than the KD.
# (1 picture or pasted object on this page, not shown here)
row,Structure (SMILES),Kd [nM]
1,CC[C@H](C)[C@@H]1NC(=O)[C@H](CCCNC(=N)N)NC(=O)[C@H](CCCNC(=N)N)NC(=O)CNC(=O)[C@H](CCCCN)NC(=O)[C@H](CCCNC(=N)N)NC(=O)[C@H]([C@@H](C)O)NC(=O)[C@H](CCCNC(=N)N)NC(=O)[C@H](C(C)C)NC(=O)[C@H](CCN)NC(=O)[C@@H]2CCCN2C(=O)[C@H]2CCCN2C(=O)[C@H]([C@@H](C)CC)NC(=O)[C@H](CCCNC(=N)N)NC1=O [JB59] (cyclo([Dab]VRTRKGRRIRI[dP]P)),1 ± 0.3

# Same assay, conditions: EMSA; positional scanning library, Table S1; with tRNA; read-out: Kd (nM) w/tRNA
row,Structure (SMILES),Kd [nM]
1,CC[C@H](C)[C@@H]1NC(=O)[C@H](CCCNC(=N)N)NC(=O)[C@H](CCCNC(=N)N)NC(=O)CNC(=O)[C@H](CCCCN)NC(=O)[C@H](CCCNC(=N)N)NC(=O)[C@H]([C@@H](C)O)NC(=O)[C@@H](CCCNC(=N)N)NC(=O)[C@H](C(C)C)NC(=O)[C@H](CCCNC(=N)N)NC(=O)[C@@H]2CCCN2C(=O)[C@H]2CCCN2C(=O)[C@H]([C@@H](C)CC)NC(=O)[C@H](CCCNC(=N)N)NC1=O [JB-72] (cyclo(RV[dR]TRKGRRIRI[dP]P)),> 1000
2,CC[C@H](C)[C@@H]1NC(=O)[C@H](CCCNC(=N)N)NC(=O)[C@H](CCCNC(=N)N)NC(=O)CNC(=O)[C@H](CCCCN)NC(=O)[C@H](CCCCNC(=N)N)NC(=O)[C@H]([C@@H](C)O)NC(=O)[C@H](CCCNC(=N)N)NC(=O)[C@H](C(C)C)NC(=O)[C@H](CCCNC(=N)N)NC(=O)[C@@H]2CCCN2C(=O)[C@H]2CCCN2C(=O)[C@H]([C@@H](C)CC)NC(=O)[C@H](CCCNC(=N)N)NC1=O [KP-Y-03] (cyclo(RVRT[hArg]KGRRIRI[dP]P)),200
3,CC[C@H](C)[C@@H]1NC(=O)[C@H](CCCNC(=N)N)NC(=O)[C@H](CCCNC(=N)N)NC(=O)CNC(=O)[C@H](CCCCN)NC(=O)[C@H](CCCNC(=N)N)NC(=O)[C@H]([C@@H](C)O)NC(=O)[C@H](CCCNC(=N)N)NC(=O)[C@H](C(C)C)NC(=O)[C@H](CCC(N)=O)NC(=O)[C@@H]2CCCN2C(=O)[C@H]2CCCN2C(=O)[C@H]([C@@H](C)CC)NC(=O)[C@H](CCCNC(=N)N)NC1=O [JB-61] (cyclo(QVRTRKGRRIRI[dP]P)),> 1000
4,CC[C@H](C)[C@@H]1NC(=O)[C@H](CCCNC(=N)N)NC(=O)[C@H](CCCNC(=N)N)NC(=O)CNC(=O)[C@H](CCCCN)NC(=O)[C@H](CCCNC(=N)N)NC(=O)[C@H]([C@@H](C)O)NC(=O)[C@H](CCCNC(=N)N)NC(=O)[C@H](C(C)C)NC(=O)[C@H](CCCNC(=N)N)NC(=O)[C@@H]2CCCN2C(=O)[C@H]2CCCN2C(=O)[C@H](C)NC(=O)[C@H](CCCNC(=N)N)NC1=O [JB-83] (cyclo(RVRTRKGRRIRA[dP]P)),> 1000
5,CC[C@H](C)[C@@H]1NC(=O)[C@H](CCCNC(=N)N)NC(=O)[C@H](CCCNC(=N)N)NC(=O)CNC(=O)[C@H](CCCCN)NC(=O)[C@H](CCCNC(=N)N)NC(=O)[C@H]([C@@H](C)O)NC(=O)[C@H](CCCNC(=N)N)NC(=O)[C@H](C(C)C)NC(=O)[C@H](CCCNC(=N)N)NC(=O)[C@@H]2CCCN2C(=O)[C@H]2CCCN2C(=O)[C@H]([C@@H](C)CC)NC(=O)[C@H](Cc2c[nH]cn2)NC1=O [JB-77] (cyclo(RVRTRKGRRIHI[dP]P)),> 1000
6,CC[C@H](C)[C@@H]1NC(=O)[C@H](CCCNC(=N)N)NC(=O)[C@H](CCCCNC(=N)N)NC(=O)CNC(=O)[C@H](CCCCN)NC(=O)[C@H](CCCNC(=N)N)NC(=O)[C@H]([C@@H](C)O)NC(=O)[C@H](CCCNC(=N)N)NC(=O)[C@H](C(C)C)NC(=O)[C@H](CCCNC(=N)N)NC(=O)[C@@H]2CCCN2C(=O)[C@H]2CCCN2C(=O)[C@H]([C@@H](C)CC)NC(=O)[C@H](CCCNC(=N)N)NC1=O [KP-Y-04] (cyclo(RVRTRKG[hArg]RIRI[dP]P)),75
7,CC[C@H](C)[C@@H]1NC(=O)[C@H](CCCCNC(=N)N)NC(=O)[C@H](CCCNC(=N)N)NC(=O)CNC(=O)[C@H](CCCCN)NC(=O)[C@H](CCCNC(=N)N)NC(=O)[C@H]([C@@H](C)O)NC(=O)[C@H](CCCNC(=N)N)NC(=O)[C@H](C(C)C)NC(=O)[C@H](CCCNC(=N)N)NC(=O)[C@@H]2CCCN2C(=O)[C@H]2CCCN2C(=O)[C@H]([C@@H](C)CC)NC(=O)[C@H](CCCNC(=N)N)NC1=O [KP-Y-05] (cyclo(RVRTRKGR[hArg]IRI[dP]P)),100
8,CC[C@H](C)[C@@H]1NC(=O)[C@H](CCCNC(=N)N)NC(=O)[C@H](CCCNC(=N)N)NC(=O)CNC(=O)[C@H](CCCCN)NC(=O)[C@H](CCCNC(=N)N)NC(=O)[C@H]([C@@H](C)O)NC(=O)[C@H](CCCCNC(=N)N)NC(=O)[C@H](C(C)C)NC(=O)[C@H](CCCNC(=N)N)NC(=O)[C@@H]2CCCN2C(=O)[C@H]2CCCN2C(=O)[C@H]([C@@H](C)CC)NC(=O)[C@H](CCCNC(=N)N)NC1=O [KP-Y-02] (cyclo(RV[hArg]TRKGRRIRI[dP]P)),200
9,CC[C@H](C)[C@@H]1NC(=O)[C@H](Cc2c[nH]c3ccccc23)NC(=O)[C@H](CCCNC(=N)N)NC(=O)CNC(=O)[C@H](CCCCN)NC(=O)[C@H](CCCNC(=N)N)NC(=O)[C@H]([C@@H](C)O)NC(=O)[C@H](CCCNC(=N)N)NC(=O)[C@H](C(C)C)NC(=O)[C@H](CCCNC(=N)N)NC(=O)[C@@H]2CCCN2C(=O)[C@H]2CCCN2C(=O)[C@H]([C@@H](C)CC)NC(=O)[C@H](CCCNC(=N)N)NC1=O [JB-74] (cyclo(RVRTRKGRWIRI[dP]P)),> 1000
10,CC[C@H](C)[C@@H]1NC(=O)[C@H](CCCNC(=N)N)NC(=O)[C@H](CCCNC(=N)N)NC(=O)CNC(=O)[C@H](CCCCN)NC(=O)[C@H](Cc2ccc(O)cc2)NC(=O)[C@H]([C@@H](C)O)NC(=O)[C@H](CCCNC(=N)N)NC(=O)[C@H](C(C)C)NC(=O)[C@H](CCCNC(=N)N)NC(=O)[C@@H]2CCCN2C(=O)[C@H]2CCCN2C(=O)[C@H]([C@@H](C)CC)NC(=O)[C@H](CCCNC(=N)N)NC1=O [JB-68] (cyclo(RVRTYKGRRIRI[dP]P)),> 1000
11,CC[C@H](C)[C@@H]1NC(=O)[C@H](CCCNC(=N)N)NC(=O)[C@H](Cc2ccc(O)cc2)NC(=O)CNC(=O)[C@H](CCCCN)NC(=O)[C@H](CCCNC(=N)N)NC(=O)[C@H]([C@@H](C)O)NC(=O)[C@H](CCCNC(=N)N)NC(=O)[C@H](C(C)C)NC(=O)[C@H](CCCNC(=N)N)NC(=O)[C@@H]2CCCN2C(=O)[C@H]2CCCN2C(=O)[C@H]([C@@H](C)CC)NC(=O)[C@H](CCCNC(=N)N)NC1=O [JB-69] (cyclo(RVRTRKGYRIRI[dP]P)),> 1000
12,CC[C@H](C)[C@@H]1NC(=O)[C@H](CCCNC(=N)N)NC(=O)[C@H](CCCNC(=N)N)NC(=O)CNC(=O)[C@H](CCCCN)NC(=O)[C@H](CCCNC(=N)N)NC(=O)[C@H]([C@@H](C)O)NC(=O)[C@H](CCCNC(=N)N)NC(=O)[C@H](C(C)C)NC(=O)[C@H](CCCNC(=N)N)NC(=O)[C@@H]2CCCN2C(=O)[C@H]2CCCN2C(=O)[C@H]([C@@H](C)CC)NC(=O)[C@H](Cc2ccc(O)cc2)NC1=O [JB-78] (cyclo(RVRTRKGRRIYI[dP]P)),> 1000
13,CC[C@H](C)[C@@H]1NC(=O)[C@H](CCCNC(=N)N)NC(=O)[C@H](CCCNC(=N)N)NC(=O)CNC(=O)[C@H](CCCCN)NC(=O)[C@H](CCCNC(=N)N)NC(=O)[C@H]([C@@H](C)O)NC(=O)[C@H](CCCNC(=N)N)NC(=O)[C@H](CC(=O)O)NC(=O)[C@H](CCCNC(=N)N)NC(=O)[C@@H]2CCCN2C(=O)[C@H]2CCCN2C(=O)[C@H]([C@@H](C)CC)NC(=O)[C@H](CCCNC(=N)N)NC1=O [JB-64] (cyclo(RDRTRKGRRIRI[dP]P)),> 1000
